In US11279707B2, “NEK inhibitors and methods of use” (DANA-FARBER CANCER INSTITUTE, INC., priority 2017, dated 2022):

What was measured:
Assay type in all cases: biochemical
NEK2 = target: T1, NEK2 (Homo sapiens, UniProt P51955); assay: kinase inhibition, NEK2
T1 sequence (P51955 1-445): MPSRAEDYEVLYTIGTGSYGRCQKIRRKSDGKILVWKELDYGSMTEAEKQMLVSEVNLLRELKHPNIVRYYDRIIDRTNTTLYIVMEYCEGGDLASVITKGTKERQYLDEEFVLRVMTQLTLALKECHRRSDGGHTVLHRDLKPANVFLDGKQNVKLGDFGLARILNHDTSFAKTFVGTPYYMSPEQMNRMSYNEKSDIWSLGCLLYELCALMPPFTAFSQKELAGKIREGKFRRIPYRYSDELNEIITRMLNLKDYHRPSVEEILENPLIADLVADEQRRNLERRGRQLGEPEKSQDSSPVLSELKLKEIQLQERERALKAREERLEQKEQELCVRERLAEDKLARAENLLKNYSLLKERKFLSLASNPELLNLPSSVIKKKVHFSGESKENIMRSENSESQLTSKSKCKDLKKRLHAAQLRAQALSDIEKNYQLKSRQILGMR

GRK4 = GRK4 (Homo sapiens, UniProt P32298); assay: kinase inhibition, GRK4
NEK9 = target: T2, NEK9 (Homo sapiens, UniProt Q8TD19); assay: kinase inhibition, NEK9
T2 sequence (Q8TD19 1-979): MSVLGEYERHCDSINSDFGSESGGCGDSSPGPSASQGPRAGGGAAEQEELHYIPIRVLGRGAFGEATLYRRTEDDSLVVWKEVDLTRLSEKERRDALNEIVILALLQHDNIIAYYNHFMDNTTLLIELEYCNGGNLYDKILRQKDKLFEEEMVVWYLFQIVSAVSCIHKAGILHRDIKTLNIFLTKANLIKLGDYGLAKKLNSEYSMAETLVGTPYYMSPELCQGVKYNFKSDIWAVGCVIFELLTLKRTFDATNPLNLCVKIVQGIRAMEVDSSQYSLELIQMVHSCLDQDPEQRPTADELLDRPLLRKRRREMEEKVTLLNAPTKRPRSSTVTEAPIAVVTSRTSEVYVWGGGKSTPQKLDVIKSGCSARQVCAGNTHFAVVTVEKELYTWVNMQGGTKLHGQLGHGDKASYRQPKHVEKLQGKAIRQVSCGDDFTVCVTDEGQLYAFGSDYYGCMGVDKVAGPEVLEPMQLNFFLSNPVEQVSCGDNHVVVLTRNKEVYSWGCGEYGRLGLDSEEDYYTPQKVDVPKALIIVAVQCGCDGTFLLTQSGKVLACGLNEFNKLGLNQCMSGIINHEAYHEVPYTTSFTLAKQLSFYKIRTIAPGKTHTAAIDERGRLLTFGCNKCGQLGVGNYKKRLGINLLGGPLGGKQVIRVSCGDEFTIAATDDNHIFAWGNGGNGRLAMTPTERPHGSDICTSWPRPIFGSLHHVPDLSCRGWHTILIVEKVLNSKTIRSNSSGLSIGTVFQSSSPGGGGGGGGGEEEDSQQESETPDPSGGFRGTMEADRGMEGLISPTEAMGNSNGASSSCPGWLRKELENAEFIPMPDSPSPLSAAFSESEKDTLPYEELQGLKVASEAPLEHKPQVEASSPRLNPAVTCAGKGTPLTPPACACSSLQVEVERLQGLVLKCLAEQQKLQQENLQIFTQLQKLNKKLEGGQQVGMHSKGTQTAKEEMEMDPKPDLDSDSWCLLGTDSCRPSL

NEK6 = NEK6 (Homo sapiens, UniProt Q9HC98); assay: kinase inhibition, NEK6
RSK1 = RSK1 (Homo sapiens, UniProt Q15418); assay: kinase inhibition, RSK1
NEK7 = NEK7 (Homo sapiens, UniProt Q8TDX7); assay: kinase inhibition, NEK7
GSK3B = GSK3B (Homo sapiens, UniProt P49841); assay: kinase inhibition, GSK3B
Chain of GSK3B (P49841 whole entry, species assumed): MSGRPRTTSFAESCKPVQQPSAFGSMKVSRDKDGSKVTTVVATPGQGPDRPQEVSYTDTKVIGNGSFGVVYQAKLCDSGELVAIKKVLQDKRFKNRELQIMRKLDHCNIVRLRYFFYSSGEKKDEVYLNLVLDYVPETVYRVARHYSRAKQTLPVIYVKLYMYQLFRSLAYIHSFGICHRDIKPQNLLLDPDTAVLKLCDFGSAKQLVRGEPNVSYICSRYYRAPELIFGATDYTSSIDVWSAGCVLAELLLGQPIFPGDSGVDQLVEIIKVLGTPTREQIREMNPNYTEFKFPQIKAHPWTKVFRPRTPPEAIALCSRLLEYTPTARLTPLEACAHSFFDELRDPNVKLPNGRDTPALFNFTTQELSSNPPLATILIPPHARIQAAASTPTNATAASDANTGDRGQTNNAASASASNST

Chain of NEK6 (Q9HC98 whole entry, species assumed): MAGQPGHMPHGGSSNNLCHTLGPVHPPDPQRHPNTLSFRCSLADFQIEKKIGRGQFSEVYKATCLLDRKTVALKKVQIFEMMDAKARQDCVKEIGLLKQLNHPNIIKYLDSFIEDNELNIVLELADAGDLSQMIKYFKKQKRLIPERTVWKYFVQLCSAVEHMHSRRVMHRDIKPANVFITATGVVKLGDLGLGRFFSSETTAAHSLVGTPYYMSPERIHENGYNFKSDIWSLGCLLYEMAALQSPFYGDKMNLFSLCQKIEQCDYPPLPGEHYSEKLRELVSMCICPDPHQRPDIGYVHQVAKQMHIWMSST
Chain of NEK7 (Q8TDX7 whole entry, species assumed): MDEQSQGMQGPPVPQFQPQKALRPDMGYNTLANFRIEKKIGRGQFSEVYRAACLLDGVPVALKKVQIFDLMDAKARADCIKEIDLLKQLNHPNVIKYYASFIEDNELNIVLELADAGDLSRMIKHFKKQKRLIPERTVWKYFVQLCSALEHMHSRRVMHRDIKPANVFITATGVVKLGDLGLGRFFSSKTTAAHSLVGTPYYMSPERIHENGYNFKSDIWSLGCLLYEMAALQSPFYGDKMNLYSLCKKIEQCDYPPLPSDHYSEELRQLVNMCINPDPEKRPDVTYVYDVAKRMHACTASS
Chain of RSK1 (Q15418 whole entry, species assumed): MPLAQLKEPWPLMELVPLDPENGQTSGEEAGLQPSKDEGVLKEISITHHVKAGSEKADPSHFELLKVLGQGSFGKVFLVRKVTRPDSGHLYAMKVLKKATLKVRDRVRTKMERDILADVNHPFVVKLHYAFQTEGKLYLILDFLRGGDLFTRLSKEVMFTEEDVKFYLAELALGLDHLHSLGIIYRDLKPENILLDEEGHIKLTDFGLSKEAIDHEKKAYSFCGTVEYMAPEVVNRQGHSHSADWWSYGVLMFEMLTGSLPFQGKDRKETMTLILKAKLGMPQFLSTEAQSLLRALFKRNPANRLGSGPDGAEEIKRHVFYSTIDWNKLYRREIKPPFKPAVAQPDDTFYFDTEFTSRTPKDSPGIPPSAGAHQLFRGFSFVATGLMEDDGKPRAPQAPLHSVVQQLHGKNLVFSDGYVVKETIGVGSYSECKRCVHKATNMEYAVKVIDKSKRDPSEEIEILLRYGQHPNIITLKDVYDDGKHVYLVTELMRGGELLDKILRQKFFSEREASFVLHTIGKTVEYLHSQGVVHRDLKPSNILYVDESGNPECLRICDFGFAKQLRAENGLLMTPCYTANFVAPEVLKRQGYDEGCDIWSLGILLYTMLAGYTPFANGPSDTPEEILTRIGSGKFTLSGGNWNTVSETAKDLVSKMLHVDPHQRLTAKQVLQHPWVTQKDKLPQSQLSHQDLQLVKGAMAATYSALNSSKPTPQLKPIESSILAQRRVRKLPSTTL
Chain of GRK4 (P32298 whole entry, species assumed): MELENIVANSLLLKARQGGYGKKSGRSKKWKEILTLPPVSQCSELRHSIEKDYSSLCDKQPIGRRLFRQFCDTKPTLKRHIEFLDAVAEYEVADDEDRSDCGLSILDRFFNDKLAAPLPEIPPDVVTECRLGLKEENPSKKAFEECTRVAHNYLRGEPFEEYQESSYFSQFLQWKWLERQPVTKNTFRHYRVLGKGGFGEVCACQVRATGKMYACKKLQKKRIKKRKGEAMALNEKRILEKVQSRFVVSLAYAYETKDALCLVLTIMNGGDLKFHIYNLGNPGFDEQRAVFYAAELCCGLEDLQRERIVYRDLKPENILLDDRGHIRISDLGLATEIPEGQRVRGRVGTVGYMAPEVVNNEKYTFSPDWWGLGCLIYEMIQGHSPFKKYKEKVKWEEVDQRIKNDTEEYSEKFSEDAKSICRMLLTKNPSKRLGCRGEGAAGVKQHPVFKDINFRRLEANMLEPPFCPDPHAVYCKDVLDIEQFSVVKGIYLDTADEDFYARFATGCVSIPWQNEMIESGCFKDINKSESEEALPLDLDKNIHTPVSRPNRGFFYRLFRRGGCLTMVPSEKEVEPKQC

Row | SMILES | IC50 (NEK2) [nM] | IC50 (GRK4) [nM] | IC50 (NEK9) [nM] | IC50 (NEK6) [nM] | IC50 (RSK1) [nM] | IC50 (NEK7) [nM] | IC50 (GSK3B) [nM]
1 | CN1CCN(c2ccc(Nc3ncc4c(n3)n3c(cc5ccccc53)c(=O)n4C)cc2)CC1 [Compound I-1] | ≤ 50 | 1000 to 5000 | ≤ 50 | 50 to 250 | 50 to 250 | 250 to 1000 | 250 to 1000
2 | COc1cc(N2CCC(O)CC2)ccc1Nc1ncc2c(n1)n1c(cc3ccccc31)c(=O)n2C [Compound I-2] | 50 to 250 | – | 50 to 250 | 250 to 1000 | 1000 to 5000 | 50 to 250 | 1000 to 5000
3 | COc1cc(N2CCN(C)CC2)ccc1Nc1ncc2c(n1)n1c(cc3ccccc31)c(=O)n2C [Compound I-3] | 50 to 250 | – | 50 to 250 | 50 to 250 | 250 to 1000 | 50 to 250 | 1000 to 5000
4 | COc1cc(C(=O)N2CCC(N3CCN(C)CC3)CC2)ccc1Nc1ncc2c(n1)n1c(cc3ccccc31)c(=O)n2C [Compound I-4] | 50 to 250 | – | 250 to 1000 | 1000 to 5000 | 250 to 1000 | 1000 to 5000 | ≥ 5000
5 | CN1CCN(c2ccc(Nc3ncc4c(n3)n3c(cc5ccccc53)c(=O)n4C)cc2C(F)(F)F)CC1 [Compound I-5] | 50 to 250 | – | 50 to 250 | ≥ 5000 | 1000 to 5000 | 1000 to 5000 | ≥ 5000
6 | COc1cc(C2CCN(C)CC2)ccc1Nc1ncc2c(n1)n1c(cc3ccccc31)c(=O)n2C [Compound I-6] | ≤ 50 | – | 50 to 250 | 250 to 1000 | 50 to 250 | 50 to 250 | ≥ 5000
